Measured values from paper PMC4278708, “A Convenient Method for the Synthesis of (Prop-2-Ynyloxy)Benzene Derivatives via Reaction with Propargyl Bromide, Their Optimization, Scope and Biological Evaluation” (PLoS ONE, 2014).
In brackets after ≈: the same amount, converted by molar mass. Where two headings read alike, the source gives them in different places.

How the values were obtained:
urease enzyme = urease enzyme (Canavalia ensiformis, UniProt P07374); experiment: biochemical; format: biochemical; settings: for urease inhibition activity (in words): 50 and 100 µg/ml tested; for inhibition at 50 µg/mL: read-out: Percentage inhibition at 50 ug/mL; for inhibition at 100 µg/mL: read-out: Percentage inhibition at 100 ug/mL
Protocol: Antiurease activity of the synthesized compounds was determined by using the modified phenol-hypochlorite method. Varying concentrations were used to prepare the urease inhibition curve of Thiourea (a known inhibitor of Urease) in the reaction mixture. Phosphate buffer solution of pH 7 containing 1 unit of enzyme was added about 200 µl in the test tube which was followed by the addition of 230 µl of phosphate buffer and 20 µl of thiourea from a scrupulous stock solution for the particular concentration of thiourea in the reaction mixture respectively. Test sample solutions were added instead of thiourea solution in case of test samples. The reaction mixture were mixed and incubated at 25°C for 5 min. 400 µl of urea stock (20 mM) was added in each test tube. In order to allow the action of urease on urea, all the test tubes were incubated at 40°C.
Phenol hypochlorite reagent (1150 µl) was added after 10 min incubation at 40°C. Test tubes were again incubated at 56°C for 25 min. A blue coloured complex was formed in the reaction mixture. The samples were allowed to cool for 5 min and then their absorbance values were measured at 625 nm and the %age inhibition was calculated. Experiment was repeated three times to get the SD values.

[1] = Nitric oxide (NO) scavenging activity (sodium nitropruside / Griess reagent); settings: for IC50: NO scavenging; for Percentage scavenging activity at 50 ug/ml / Percentage scavenging activity at 100 ug/ml: NO
Protocol: Solutions of known concentration were prepared by dissolving the synthesized compounds in appropriate solvents. A mixture of sample solution (20 µl), 10 mM sodium nitropruside solution (200 µl) and phosphate buffer of 7.4 pH (1780 µl) was taken in a dry test tube and the mixture was incubated at 37°C for 2 hours. 200 µl Griess reagent (0.3% Sulphanilic acid in glacial acetic acid, 0.1% Naphthyl ethylene diamine HCL (NED): Mixed equal volume of both solutions just before use) was added after the incubation period is over. After 20 min keeping the solution at room temperature, its absorbance at 528 nm was measured. Each sample was analyzed in triplicate. Positive control of any known antioxidant and control of all samples were run in parallel. Use of negative control was to calibrate the instrument. Sample blanks were also prepared in case if the samples were coloured. Correction in the absorbance values was made by subtracting the sample blank reading from the sample reading.

Bacillus subtillus = experiment: Antibacterial activity, disc diffusion method; format: cell-based; settings: for inhibition at 100 µg/mL / IC50 / inhibition at 50 µg/mL: Bacillus; for inhibition at 100 µg/mL: read-out: Bacillus subtillus 100 ug/ml (percentage inhibition); for inhibition at 50 µg/mL: read-out: Bacillus subtillus 50 ug/ml (percentage inhibition)
Text: (§1) Disc diffusion method was adopted to test the antibacterial activity of synthesized compounds 2a-10 against […] different bacterial strains. Ampiciline was used as positive control to check antibacterial activity of synthesized compounds. The bacterial strains employed were: Escherichia coli, Bacillus subtillus, Shigella flexneri, Staphylococcus aureus, Pseudomonas aeroginosa and Salmonella typhi.
(§2) Disc diffusion method was used for the determination of antibacterial activity. synthetic organic compounds were examined to evaluate their antibacterial potential against four different strains of bacteria i.e. Staphlococcus aureus (Gram + ive), Pseudomonas- aeroginosa (Gram−ive) and Escherichia coli (Gram−ive), Bacillus subtilis (Gram + ive), Salmonella typhi (Gram−ive) and Shigella flexneri (−ive). The synthetic organic compounds were dissolved in an appropriate solvent to get the solution of known concentration (5 µg/µl or 10 µg/µl). In order to prepare discs of different potencies known volume of extract/synthetic organic compound solution was applied on the discs, air dried and used. After preparation of the sterilized nutrient agar and nutrient broth medium, the sterilized nutrient agar medium was poured under aseptic conditions into sterile glass petri dishes/plates. A known volume of bacterial growth culture can also be poured on the surface of agar medium solidified in petri dishes. After inoculation petri plates were kept at room temperature for 15–30 minutes so that the poured medium is adsorbed. All the discs, including test sample, +ive and –ve controls were placed onto the inoculated nutrient agar medium solidified in petri dishes with the help of sterile forceps and incubated the petri plates at 37°C±2°C for 16–24 hours. Zone of inhibition was measured in mm using ordinary scale. Experiment was repeated three times to get the SD values.

Staphylococcus aureus = experiment: Antibacterial activity, disc diffusion method; format: cell-based; settings: for inhibition at 40 µg/mL / inhibition at 100 µg/mL / IC50: Staphylococcus aureus; for inhibition at 40 µg/mL: read-out: Staphylococcus aureus 40 ug/ml (percentage inhibition); for inhibition at 100 µg/mL: read-out: Staphylococcus aureus 100 ug/ml (percentage inhibition)
Text: as §1, §2

[2] = read-out: Staphylococcus aureus IC50 ug/ml
[3] = read-out: Bacillus subtillus IC50 ug/ml

urease enzyme, sequence (P07374 whole entry, looked up): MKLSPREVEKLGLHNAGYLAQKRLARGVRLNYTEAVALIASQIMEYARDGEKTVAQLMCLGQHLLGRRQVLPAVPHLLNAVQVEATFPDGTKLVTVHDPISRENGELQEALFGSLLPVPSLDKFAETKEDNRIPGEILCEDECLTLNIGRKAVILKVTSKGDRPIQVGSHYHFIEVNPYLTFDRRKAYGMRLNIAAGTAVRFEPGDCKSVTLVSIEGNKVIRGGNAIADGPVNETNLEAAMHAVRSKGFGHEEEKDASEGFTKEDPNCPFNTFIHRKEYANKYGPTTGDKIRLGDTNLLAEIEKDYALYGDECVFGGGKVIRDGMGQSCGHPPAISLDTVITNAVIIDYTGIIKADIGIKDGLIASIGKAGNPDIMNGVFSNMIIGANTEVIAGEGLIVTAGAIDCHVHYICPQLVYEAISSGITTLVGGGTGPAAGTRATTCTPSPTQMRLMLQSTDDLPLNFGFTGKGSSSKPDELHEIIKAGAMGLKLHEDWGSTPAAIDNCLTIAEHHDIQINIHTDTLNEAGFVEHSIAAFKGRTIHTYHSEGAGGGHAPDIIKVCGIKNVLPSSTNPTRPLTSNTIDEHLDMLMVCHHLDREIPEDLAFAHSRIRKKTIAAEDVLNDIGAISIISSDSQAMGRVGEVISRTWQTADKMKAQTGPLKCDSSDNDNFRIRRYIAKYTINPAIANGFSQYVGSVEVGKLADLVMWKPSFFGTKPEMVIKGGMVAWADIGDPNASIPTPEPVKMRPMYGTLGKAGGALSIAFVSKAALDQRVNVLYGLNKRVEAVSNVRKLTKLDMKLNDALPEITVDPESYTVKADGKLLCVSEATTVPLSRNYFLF

| Molecule | inhibition at 50 µg/mL (urease enzyme) | inhibition at 100 µg/mL (urease enzyme) | IC50 [1] | Percentage scavenging activity at 50 ug/ml [1] | Percentage scavenging activity at 100 ug/ml [1] | inhibition at 100 µg/mL (Bacillus subtillus; 100 ug/ml) | inhibition at 40 µg/mL (Staphylococcus aureus) | inhibition at 100 µg/mL (Staphylococcus aureus) | IC50 (urease enzyme) | activity against Bacillus subtillus (in words) (Bacillus subtillus) | IC50 (Staphylococcus aureus; [2]) | inhibition at 50 µg/mL (Bacillus subtillus; 50 ug/ml) | also measured |
| --- | --- | --- | --- | --- | --- | --- | --- | --- | --- | --- | --- | --- | --- |
| C#CCNc1ccc(Br)c(C)c1 [Compound 8c, 4-bromo-3-methyl-N-(prop-2-ynyl)aniline] | 32 ± 0.38% | 45.26 ± 0.295% | 78 µg/mL (≈ 348 µM) | 33.66±0.09% | 62.8±0.19% | 36 ± 0.39% | 15.9 ± 0.69% | 35 ± 0.2% |  |  |  |  | urease inhibition activity (in words) (urease enzyme): did not show any satisfactory results; melting point: 40.85 °C |
| C#CCOc1ccc(C(C)(C)c2ccc(OCC#C)cc2)cc1 [Compound 4a, 4,4′-(propane-2,2-diyl)bis((prop-2-ynyloxy)benzene)] | 37 ± 0.34% | 89.42 ± 0.05% | 64.4 µg/mL (≈ 212 µM) | 40±0.09% | 74.53±0.13% | 33.9 ± 0.45% | 29.1 ± 0.6% | 50 ± 0.2% | 205 µM | inactive | 97.7 µg/mL (≈ 321 µM) |  | activity against Staphylococcus aureus (in words) (Staphylococcus aureus): moderate activity |
| 2-bromo-4-methyl-N-(prop-2-ynyl)aniline [Compound 8b] |  |  | 87.5 µg/mL | 26.33±0.11% | 57.98±0.21% |  |  |  |  |  |  |  | IC50 (urease enzyme; urease): 98.2 µg/mL; Percentage inhibition at 50 ug/mL (urease enzyme; urease): 27±0.45%; Percentage inhibition at 100 ug/mL (urease enzyme; urease): 50.83±0.265%; Bacillus subtillus 100 ug/ml (percentage inhibition) (Bacillus subtillus; 100 ug/ml): 43.8±0.35%; Staphylococcus aureus 40 ug/ml (percentage inhibition) (Staphylococcus aureus): 13.39±0.5%; Staphylococcus aureus 100 ug/ml (percentage inhibition) (Staphylococcus aureus): 36±0.8% |
| C#CCOc1ccc(S(=O)(=O)c2ccc(OCC#C)cc2)cc1 [Compound 4b, 4,4′-sulfonylbis((prop-2-ynyloxy)benzene)] | 32 ± 0.28% | 74.9 ± 0.13% | 89.6 µg/mL (≈ 275 µM) | 15.33±0.12% | 59±0.15% | 50.9 ± 0.34% | 26.9 ± 0.35% | 53 ± 0.7% | 217 µM |  | 94.2 µg/mL (≈ 289 µM) |  | IC50 (Bacillus subtillus; [3]): 97.6 µg/mL (≈ 299 µM); activity against Staphylococcus aureus (in words) (Staphylococcus aureus): moderate activity; melting point: 136 °C |
| C#CCOc1cccc2ccccc12 [Compound 6a, 1-(prop-2-ynyloxy)naphthalene] | 41.33 ± 0.41% | 65.3 ± 0.18% | 83 µg/mL (≈ 455 µM) | 24.33±0.12% | 63.17±0.19% |  | -1.85% | 10 ± 0.9% | 373 µM |  |  |  | IC50 (Bacillus subtillus; [3]): 92.6 µg/mL (≈ 508 µM); activity against Staphylococcus aureus (in words) (Staphylococcus aureus): inactive |
| C#CCNc1cccc2ccccc12 [Compound 8d, N-(prop-2-ynyl)naphthalen-1-amine] | 43 ± 0.42% | 51.5 ± 0.26% |  | 7.67±0.13% | 38.38±0.32% |  | 5.85 ± 0.8% | 31 ± 0.2% | 506 µM |  |  |  | nitric oxide scavenging activity (in words) [1]: did not show any significant results |
| C#CCOc1ccc(C)cc1Br [Compound 2d, 2-bromo-4-methyl-1-(prop-2-ynyloxy)benzene] | 30.3 ± 0.6% | 85.89 ± 0.07% | 74.1 µg/mL (≈ 329 µM) | 31.33±0.10% | 69.95±0.15% |  | 27.7 ± 0.35% | 52 ± 0.607% | 298 µM | potent antibacterial | 95.9 µg/mL (≈ 426 µM) | 41.5 ± 0.3% | IC50 (Bacillus subtillus; [3]): 79.9 µg/mL (≈ 355 µM) |
| O=C1O[C@H]([C@@H](O)CO)C(O)=C1O [Vit.C control, Ascorbic acid, reference compound] |  |  | 50.43 µg/mL (≈ 286 µM) | 38.5±0.16% | 84.1±0.12% |  |  |  |  |  |  |  |  |
| C#CCOc1ccc(Br)cc1Cl [Compound 2a, 4-bromo-2-chloro-1-(prop-2-ynyloxy)benzene] | 42.5 ± 0.7% | 82 ± 0.09% | 67.72 µg/mL (≈ 276 µM) | 35.67±0.09% | 76.09±0.12% |  | 29.13 ± 0.12% | 51 ± 0.5% | 245 µM | inactive | 97.7 µg/mL (≈ 398 µM) | 42.4 ± 0.35% | melting point: 29 °C |
| C#CCOc1ccc(F)cc1Br [Compound 2e, 2-bromo-4-fluoro-1-(prop-2-ynyloxy)benzene] | 40 ± 0.5% | 79.59 ± 0.11% | 68.8 µg/mL (≈ 300 µM) | 33.33±0.1% | 77.5±0.11% |  | 31.99 ± 0.07% | 58 ± 0.9% | 271 µM | inactive | 85.1 µg/mL (≈ 372 µM) |  |  |
| N-(prop-2-ynyl)-4-(prop-2-ynyloxy)aniline [Compound 10] |  |  | 78.1 µg/mL | 30±0.10% | 65.5±0.18% |  |  |  |  | batter activity |  |  | IC50 (urease enzyme; urease): 89.6 µg/mL; Percentage inhibition at 50 ug/mL (urease enzyme; urease): 25±0.45%; Percentage inhibition at 100 ug/mL (urease enzyme; urease): 56.5±0.234%; Bacillus subtillus IC50 (Bacillus subtillus): 98.5 µg/mL; Bacillus subtillus 50 ug/ml (percentage inhibition) (Bacillus subtillus; 50 ug/ml): 6.13±0.35%; Staphylococcus aureus IC50 (Staphylococcus aureus): 96.3 µg/mL; activity against Staphylococcus aureus (in words) (Staphylococcus aureus): moderate activity; Staphylococcus aureus 40 ug/ml (percentage inhibition) (Staphylococcus aureus): 24.4±0.11%; Staphylococcus aureus 100 ug/ml (percentage inhibition) (Staphylococcus aureus): 52±0.1% |
| C#CCOc1ccc(Cl)cc1Br [Compound 2b, 2-bromo-4-chloro-1-(prop-2-ynyloxy)benzene] | 31.5 ± 0.22% | 81.07 ± 0.1% | 67.9 µg/mL (≈ 277 µM) | 39.67±0.09% | 68.44±0.16% | 39.3 ± 0.36% | 31.47 ± 0.19% | 56 ± 0.07% | 264 µM | inactive | 87.7 µg/mL (≈ 357 µM) | 40.37 ± 0.35% |  |
| CC1(C)S[C@@H]2[C@H](NC(=O)[C@H](N)c3ccccc3)C(=O)N2[C@H]1C(=O)O [Ampicilline, reference compound] |  |  |  |  |  |  | 29.9 ± 0.59% | 73 ± 0.51% |  |  |  | 9.9 ± 0.51% | IC50 (Bacillus subtillus; read-out: Bacillus subtillus IC50): 81 µg/mL (≈ 232 µM); IC50 (Staphylococcus aureus; read-out: Staphylococcus aureus IC50): 76 µg/mL (≈ 218 µM) |
| NC(N)=S [Thiourea, reference compound] |  |  |  |  |  |  |  |  |  |  |  |  | IC50 (urease enzyme; urease): 23.3 µg/mL; Percentage inhibition at 20 ug/ml (urease enzyme; urease, 20 ug/ml (positive control)): 47.1±0.31%; Percentage inhibition at 40 ug/ml (urease enzyme; urease, 40 ug/ml (positive control)): 65±0.01% |
| C#CCOc1ccc2ccccc2c1 [Compound 6b, 2-(prop-2-ynyloxy)naphthalene] | 32 ± 0.38% | 41.9 ± 0.313% | 76.16 µg/mL (≈ 418 µM) | 33.33±0.1% | 65.19±0.18% | 57.8 ± 0.26% | 21.4 ± 0.4% | 51 ± 0.3% |  |  | 98.3 µg/mL (≈ 539 µM) | 39.06 ± 0.05% | urease inhibition activity (in words) (urease enzyme): did not show any satisfactory results; IC50 (Bacillus subtillus; [3]): 79.2 µg/mL (≈ 435 µM) |
